Literature values in US20250073140A1, “ANTIPERSPIRANT COMPOSITIONS CONTAINING A SYNERGISTIC COMBINATION OF COPPER, ALUMINUM, TIN, ZINC, ZIRCONIUM, AND SILVER SALTS, AND, METHODS OF USING” (priority 2023, published 2025).

Conditions: literature report

With `[Cl][Cu][Cl]` [copper chloride] as the compound, how does the antiperspirant activity read?
The antiperspirant activity was “demonstrated to have antiperspirant activity”.
